# Experimental data taken from patent publication US9284252B2, “Use of jasmonate ester derivatives for treating benign hyperproliferative skin disorders” (SEPAL PHARMA LTD., priority 2009, dated 2016).
# How the values were obtained:
# [1] = tested on: malignant keratinocytes A431 cell line; conditions: cited from earlier work
# [2] = tested on: reconstituted three-dimensional human epidermis model (EpiDerm skin model); experiment: Skin corrosion assay, EpiDerm skin model; type: cell-based
# Description: In particular, MJ was applied topically to the EpiDerm™ tissue and incubated for 3 and 60 minutes at each time. After the incubation period, tissue viability was assessed via MTT reduction assay.
# [3] = tested on: actinic keratosis (AK) cell line HT297.T; experiment: XTT proliferation assay in actinic keratosis cell line; type: cell-based; conditions: 72 h, 3 days treatment, HT297.T cells
# Description: IC50 values were calculated from the mean of triplicate wells for each experiment. […]
# [4] = tested on: UVB-damaged skin in SKH-1 mice; experiment: Skin lesion formation induced by UVB, damaged skin mouse model of actinic keratosis; type: in vivo
# Source text: The efficacy of Compound C was further evaluated in an animal model of Actinic Keratosis (AK). The purpose of the study was to determine the effect of compound C against lesion formation in UVB-damaged skin in SKH-1 mice, a mouse model of AK and non-melanoma skin cancers.
# The study was divided to two parts: pre-study that included UVB irradiation to induce the damage to the skin, and efficacy study that included the treatment with Compound C compared to standard treatment and efficacy evaluation. After 16 weeks of UVB irradiation, 60% of the animals developed lesions, and treatment was started on week 17 and continued for 7.5 weeks. The total duration of the study was 23.5 weeks.
# The study included female mice, 6-8 weeks of age at study initiation. After 16 weeks of UVB irradiation, when 60% (36/60) of the animals developed at least 1 lesion, mice were randomly stratified into 12 mice per group (see Table 4) according to score and number of lesions. Picato gel (Ingenol mebutate, Leo Pharma Inc.) was used as the positive control.
# For UVB irradiation, Vilber-Lourmat (France) Lamp VL-6.M was used, irradiating at 312 nm with an intensity of 0.89 mW/cm^2 at a distance of 15 cm. Determination of UVB irradiation Minimal Erythemal Dose (MED) was performed prior to the beginning of the study (during the pre-study period). Animals were UVB irradiated during different time periods (starting at 30 sec) and the presence of erythema was recorded 24 and 48 hours later.
# Observations for clinical scoring and signs of erythema and edema, were performed twice a week. Erythema and edema scoring were performed according to the grading levels described in Table 5 below. Lesion numbers were determined once a week during Weeks 4-6 and twice a week during Weeks 7-16 until treatment started. During treatment, lesion number and erythema-edema scores were performed twice a week.
# [5] = tested on: reconstituted three-dimensional human epidermis model (EPISKIN-Standard Model); experiment: Skin irritation assay, reconstituted human epidermis model EPISKIN-SM; conditions: 15 minutes application, 42 hours post-incubation
# Description: (§1) In order to test the toxicity of jasmonate ester derivatives in human skin, skin irritation assay using a reconstituted three-dimensional human epidermis model (EPISKIN-Standard Model™; conducted at BSL-Bioservices, Planegg, Germany) was performed.
# (§2) Irritant potential of the compound was assessed from the relative mean tissue viabilities obtained compared to the corresponding negative control tissues concurrently treated with Aqua Dest (distilled water). The release of Interleukin-1α (IL-1α) into the tissue culture medium was determined to confirm the obtained results.
# [6] = type: in vitro ADME; conditions: human
# Description: These studies were conducted by BSL-Bioservices (Planegg, Germany) and the samples were analyzed by ATC (Liege, Belgium).
# [7] = tested on: reconstituted three-dimensional human epidermis model (EPISKIN-Standard Model)
# Description: as §1, §2
# [8] = tested on: lymphomas in mice; conditions: cited from earlier work
# [9] = tested on: cervical cancer cell lines; conditions: range of cervical cancer cell lines; cited from earlier work
# [10] = tested on: metastatic melanoma cells; conditions: cited from earlier work
compound,measurement,setting,value
CC/C=C\C[C@H]1C(=O)CC[C@@H]1CC(=O)O [jasmonic acid],toxicity on A431 cell line,[1],low toxicity
[K+].[OH-] [8N KOH],Mean relative tissue viability (%) (MTT reduction) after 3 minutes,[2]; 3 minutes treatment,26 ± 5.3%
same,Mean relative tissue viability (%) (MTT reduction) after 60 minutes,[2]; 60 minutes treatment,14 ± 3.7%
CC/C=C\CC1C(=O)CCC1CC(=O)Oc1cccc2cccnc12 (stereo not shown) [Compound C],IC50,[3],0.25 µM
same,maximal reduction in lesion number on Day 50,"[4]; Compound C 2.5% topical, group 3F",65%
same,maximal reduction in lesion number on Day 50,"[4]; Compound C 40% topical, group 5F",72%
same,maximal reduction in lesion number on Day 50,[4]; group 4F (5% topical per Table 4),70%
same,histopathology evaluation of skin,[4]; groups treated with compound C,look similar to naïve (healthy) animals
same,gross pathology examination,"[4]; mouse, in vivo",No abnormality was detected
same,skin erythema or edema following topical treatment,"[4]; mouse, in vivo",no skin erythema or edema
same,reduction in total area of lesions and total tumor area,"[4]; topical, concentration not given",70%
CCCCCCCCCCCCOS(=O)(=O)[O-].[Na+] [5% SDS solution],Mean relative tissue viability (%) (MTT reduction),[5],3.3 ± 0.6%
same,IL-1α release,[5]; tissue culture medium,236.7 ± 23.0 pg/mL
"CC/C=C\CC1C(=O)CCC1CC(=O)OC (stereo not shown) [MJ, methyl jasmonate]",local intra-skin concentrations,[6],~1 M
same,corrosion classification according to OECD Guideline and EC Commission Regulation,[2],non-corrosive
same,IC50,[3],21.1 µM
same,irritation classification according to ECVAM SIVS recommendations,[7],non-irritant
same,prevention of development of lymphomas,[8],effective
same,cytotoxicity,[9],cytotoxic
same,cell motility,[10],suppresses cell motility
same,development of lung metastases,[10],inhibits the development of lung metastases
same,toxicity on A431 cell line,[1],low toxicity
